Measurements taken from PMC5350573 (Redox Biology, 2017).

How the values were obtained:
Type in all cases: biochemical
catalase [1] = target: T1, catalase (Bos taurus, UniProt P00432); assay: amperometric; settings: read-out: % increase at 400 μM
T1 sequence (P00432 2-527): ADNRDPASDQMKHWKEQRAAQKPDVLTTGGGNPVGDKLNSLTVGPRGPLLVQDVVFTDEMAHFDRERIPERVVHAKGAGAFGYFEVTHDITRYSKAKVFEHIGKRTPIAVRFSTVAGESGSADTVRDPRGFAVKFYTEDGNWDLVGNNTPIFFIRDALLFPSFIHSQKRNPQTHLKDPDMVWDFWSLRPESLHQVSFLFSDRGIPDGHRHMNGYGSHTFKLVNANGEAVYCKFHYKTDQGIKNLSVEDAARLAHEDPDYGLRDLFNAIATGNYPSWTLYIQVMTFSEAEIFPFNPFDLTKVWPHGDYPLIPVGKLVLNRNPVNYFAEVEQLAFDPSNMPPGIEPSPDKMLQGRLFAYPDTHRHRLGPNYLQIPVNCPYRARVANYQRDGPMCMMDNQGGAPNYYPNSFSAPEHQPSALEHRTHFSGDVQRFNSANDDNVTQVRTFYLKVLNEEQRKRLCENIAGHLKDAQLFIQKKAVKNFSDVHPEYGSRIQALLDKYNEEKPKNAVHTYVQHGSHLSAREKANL

catalase [2] = target: T1, catalase; assay: amperometric H2S release from DTT by isolated catalase
catalase [3] = target: T1, catalase; assay: amperometric H2S release from SO2

Question: Which activation at 400 µM (catalase [1]) does the source give for `NC(=O)C1=CN([C@@H]2O[C@H](COP(=O)(O)OP(=O)(O)OC[C@H]3O[C@@H](n4cnc5c(N)ncnc54)[C@H](OP(=O)(O)O)[C@@H]3O)[C@@H](O)[C@H]2O)C=CC1` [NADPH] here?
Answer: ~50%

Question: `O[C@H](CS)[C@H](O)CS` (racemic) [DTT, dithiothreitol] was tested. Which “amperometric H2S release from DTT by isolated catalase” value (catalase [2]) did it give?
Answer: catalase concentration-dependent increase in H2S release (Fig. 7B) confirming that catalase reacts directly with DTT to generate H2S

Question: Which EC50 (catalase [3]) does the source give for `O=S=O` [SO2, sulfur dioxide] here?
Answer: ~ between 300 μM and 1 mM
